Measurements published in article PMC11259170, “Small-molecule probe for IBD risk variant GPR65 I231L alters cytokine signaling networks through positive allosteric modulation” (Science Advances, 2024).
Like-named read-outs stand apart in the source and are kept apart here.

Legend:
hGPR65 = target: T1, hGPR65 (Homo sapiens, UniProt Q8IYL9); assay: cAMP detection in HeLa expression cell line, hGPR65; type: cell-based; conditions: for EC50: read-out: hGPR EC50; for Emax: HeLa, relative to 100uM forskolin (100%) and DMSO (0%), read-out: hGPR Max Activity %
T1 construct: expressed in transfected cells; host or cells: HeLa (ATCC CCL-2), lentiviral transduction, pLX317
Method: (§1) HeLa stable expression cell lines were produced by lentiviral transduction. Briefly, lentiviral plasmids for each GPCR with a C-terminal V5 Tag ([…]) were made in a pLX317 backbone using competent Escherichia coli (New England Biolabs, C3050H). Lenti-X 293 T (Takara, 632810) cells were transfected with the lentiviral plasmids to produce virus. Low-passage HeLa cells (American Type Culture Collection, CCL-2) were then transduced with lentivirus. After 48 hours, HeLa cells were cultured under selection with puromycin (3 μg/ml) and allowed to recover and expand before storing stocks in liquid nitrogen.
(§2) cAMP was measured in cells using the Lance Ultra cAMP Kit. HeLa cells were cultured under puromycin (3 μg/ml) selection. One day before the experiment, cells were seeded in T75 flasks and allowed to adhere overnight. On the day of the experiment, cells were washed twice with Dulbecco’s PBS and lifted using prewarmed 1× versene solution (Gibco, 15040066). Cells were counted in HBSS (Gibco, 14025092) and then resuspended in stimulation buffer prepared according to the manufacturer’s instructions and adjusted to pH 7.2 using 1 M sodium hydroxide. Cells were added to the plate at a density of 1500 cells per well in white opaque 384-well assay ready microplates containing 100 nl of 10 mM compound in DMSO. Cells were stimulated for 30 min at RT, then lysed and incubated with detection reagents for 1 hour in the dark at RT. Plates were read on BMG Labtech PHERAstar FSX (excitation, 337 nm; emission, 620 and 665 nm). Data analysis was performed using GraphPad Prism.

mGPR65 = target: T2, mGPR65 (Mus musculus, UniProt Q61038); assay: cAMP detection in HeLa expression cell line, mGPR65; type: cell-based; conditions: for EC50: read-out: mGPR EC50; for Emax: HeLa, read-out: mGPR Max Activity %; for Emax / mGPR Max Activity: relative to 100uM forskolin (100%) and DMSO (0%)
T2 construct: expressed in transfected cells; host or cells: HeLa (ATCC CCL-2), lentiviral transduction, pLX317
Method: as §1, §2

[1] = 1st hGPR column pair, NA = no activity
[2] = 2nd hGPR column pair, NA = no activity
[3] = 1st mGPR column pair, NA = no activity
[4] = 2nd mGPR column pair, NA = no activity
[5] = SAR cAMP assay, first EC50/Max pair of hGPR columns
[6] = 3rd mGPR column pair, NA = no activity

T1 sequence (Q8IYL9 whole entry): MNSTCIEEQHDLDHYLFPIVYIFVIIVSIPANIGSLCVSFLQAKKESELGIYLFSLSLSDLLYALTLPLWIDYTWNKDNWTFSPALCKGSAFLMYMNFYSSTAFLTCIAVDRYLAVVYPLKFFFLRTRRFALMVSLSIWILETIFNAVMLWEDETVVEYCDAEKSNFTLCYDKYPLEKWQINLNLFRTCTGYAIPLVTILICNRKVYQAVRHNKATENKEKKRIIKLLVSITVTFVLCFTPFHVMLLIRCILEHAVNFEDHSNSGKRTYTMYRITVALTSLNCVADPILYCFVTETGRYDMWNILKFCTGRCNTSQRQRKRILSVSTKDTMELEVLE
T2 sequence (Q61038 whole entry): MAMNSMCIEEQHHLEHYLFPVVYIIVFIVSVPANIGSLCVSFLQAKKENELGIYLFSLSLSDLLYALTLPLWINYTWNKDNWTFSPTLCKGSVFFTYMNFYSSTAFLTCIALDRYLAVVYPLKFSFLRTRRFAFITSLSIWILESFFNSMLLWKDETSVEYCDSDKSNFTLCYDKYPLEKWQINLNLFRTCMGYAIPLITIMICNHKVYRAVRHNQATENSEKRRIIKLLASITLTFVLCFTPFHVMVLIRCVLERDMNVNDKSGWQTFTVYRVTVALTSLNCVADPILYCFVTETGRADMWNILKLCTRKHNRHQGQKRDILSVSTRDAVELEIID

Compound | EC50 (hGPR65; [1]) | EC50 (hGPR65; [2]) | Emax (hGPR65; [1]) | Emax (hGPR65; [2]) | EC50 (mGPR65; [3]) | EC50 (mGPR65; [4]) | Emax (mGPR65; [4]) | Emax (mGPR65; NA = no activity) | Emax (hGPR65; first pair) | EC50 (hGPR65; [5]) | EC50 (mGPR65; [6]) | mGPR Max Activity (mGPR65; NA = no activity) | Emax (mGPR65; first pair) | EC50 (mGPR65; SAR cAMP assay, first EC50/Max pair)
COCc1ccc(-c2cc(O)n3ncc(C(=O)Nc4ccc(C(=O)OC)cc4)c3n2)cc1 [BRD0592] | 1270 nM | 1250 nM | 68.9% | 68.2% | 820 nM | 563 nM | 57% | 64.1% |  |  |  |  |  | 
Cc1ccc(NC(=O)c2cnn3c(O)cc(-c4ccc(-c5ccccc5O)cc4)nc23)cc1 [BRD1689] | 3570 nM | 5620 nM | 79% | 74.3% | 1580 nM | 2040 nM | 45.5% | 54% |  |  |  |  |  | 
Cc1ccc(NC(=O)c2cnn3c(O)cc(-c4ccc(F)cc4)nc23)cc1 [BRD1827] | 635 nM | 963 nM | 78% | 77.5% | 1370 nM | 1290 nM | 43.8% | 43.6% |  |  |  |  |  | 
COCc1ccc(-c2cc(O)n3ncc(C(=O)Nc4ccc(C(=O)N(C)C)cc4)c3n2)cc1 [BRD1926] | 34100 nM |  | 11% |  | 21500 nM |  |  | 28.4% |  |  |  |  |  | 
COCc1ccc(-c2cc(O)n3ncc(C(=O)Nc4cccc(C)c4)c3n2)cc1 [BRD1946] | 4890 nM | 4970 nM | 80.4% | 76.2% | 501 nM | 1510 nM | 57.2% | 63.6% |  |  |  |  |  | 
Cc1ccc(NC(=O)c2cnn3c(O)cc(-c4ccc(Cl)cc4)nc23)cc1 [BRD2007] | 409 nM | 247 nM | 79.1% | 81.4% | 644 nM | 640 nM | 22.7% | 24.9% |  |  |  |  |  | 
COCc1ccc(-c2cc(OC)n3ncc(C(=O)Nc4ccc(C)cc4)c3n2)cc1 [BRD2344] |  |  |  |  | 737 nM |  |  | 4.13% |  |  |  |  |  | 
COCc1ccc(-c2cc(O)n3nccc3n2)cc1 [BRD2453] | 18600 nM |  | 11.7% |  |  |  |  |  |  |  |  |  |  | 
Cc1ccc(NC(=O)c2cnn3c(O)cc(Cc4c[nH]c5ccccc45)nc23)cc1 [BRD2917] |  |  |  |  | 18900 nM |  |  | 7.25% |  |  |  |  |  | 
Cc1ccc(NC(=O)c2cnn3c(O)cc(-c4ccc(Oc5ccccc5)cc4)nc23)cc1 [BRD3067] |  |  |  |  |  |  |  |  | 36.3% | 11100 nM |  |  |  | 
COCc1ccc(-c2cc(O)n3ncc(C(=O)N4CCS(=O)(=O)CC4)c3n2)cc1 [BRD3128] | 11000 nM |  | 3.44% |  |  |  |  |  |  |  |  |  |  | 
COCc1ccc(-c2cc(O)n3ncc(C(=O)Nc4ccc(F)cc4)c3n2)cc1 [BRD3674] | 27900 nM |  | 43.3% |  |  | 4120 nM | 7.69% |  |  |  |  |  |  | 
COCc1ccc(-c2cc(O)n3ncc(C(=O)NCc4ccc(C)cc4)c3n2)cc1 [BRD4305] |  |  |  |  | 2310 nM | 1440 nM | 36.9% | 67.8% |  |  | 1070 nM | 60.85% |  | 
Cc1ccc(NC(=O)c2cnn3c(O)cc(-c4ccc(-c5ccc(O)cc5)cc4)nc23)cc1 [BRD4475] |  |  |  |  |  |  |  |  | 22.6% | 10600 nM |  |  | 30.5% | 1660 nM
Cc1ccc(NC(=O)c2cnn3c(O)cc(C(C)Cn4nccc4C)nc23)cc1 (centres unmarked) [BRD4822] |  |  |  |  | 2820 nM | 4330 nM | 25.4% | 42% |  |  | 1190 nM | 35.73% |  | 
COc1cc(-c2cc(O)n3ncc(C(=O)Nc4ccc(C)cc4)c3n2)ccc1Cl [BRD5061] | 942 nM | 1570 nM | 72.2% | 60.5% | 794 nM |  | 20.1% | 23.4% |  |  |  |  |  | 
Cc1ccc(NC(=O)c2cnn3c(O)cc(-c4ccc(N5CCOCC5)nc4)nc23)cc1 [BRD5064] | 5020 nM | 28400 nM | 56.7% | 100% | 3410 nM | 4290 nM | 33.9% | 37.4% |  |  |  |  |  | 
